# Data: publication PMC5131915, “Platinum(II) Iodido Complexes of 7-Azaindoles with Significant Antiproliferative Effects: An Old Story Revisited with Unexpected Outcomes” (PLoS ONE, 2016)
# Columns and labels:
# [1] = tested on: cisplatin-sensitive HCT116 colon cancer cell line; set-up: method as in PMID 26226326; conditions: cited from earlier work
# [2] = tested on: cisplatin-resistant HCT116 colon cancer cell line; set-up: method as in PMID 26226326; conditions: cited from earlier work
# [3] = tested on: Caco-2 colorectal carcinoma cells; assay: In vitro cytotoxicity testing (MTT assay), Caco-2; type: cell-based, human; conditions: for IC50: 24 h drug exposure, no recovery, MTT, read-out: IC50±SD, Caco-2; for selectivity factor IC50(Hep)/IC50(cancer cell line): Caco-2
# Method: All cell lines were grown as adherent monolayers at 37°C and 5% CO2 in a humidified atmosphere.
# The MTT assay was used to determine the cell viability; MTT = 3-(4,5-dimethylthiazol-2-yl)-2,5-diphenyltetrazolium bromide. A concentration of the formed dye was evaluated spectrophotometrically at 540 nm (TECAN, Schoeller Instruments LLC).
# The data were expressed as the percentage of viability, where 100% and 0% represents the treatments with negative and positive controls, respectively. The data from the cancer cells were acquired from three independent experiments (conducted in triplicate) using cells from different passages. The resulting IC50 values (μM) were calculated from viability curves and the results are presented as arithmetic mean±SD.
# [4] = Hydrophobicity studies (logP determination), octanol/water, ICP-MS; type: physicochemical; conditions: octanol/water (0.2 M KI)
# Method: Complexes 4 and 6 (1 mmol) were ultrasonicated for 15 min in 10 mL of OSW, centrifuged and supernatants were collected. Aliquots (5 mL) of the obtained OSW solutions of complexes 4 and 6 were added to WSO (5 mL) and shaken for 2 h at ambient temperature. After that, the mixtures were centrifuged and aqueous layer was separated carefully. The platinum concentration was determined from OSW aliquots taken before ([Pt]OSWb) and after ([Pt]OSWa) partition by ICP-MS (ICP-MS spectrometer 7700x, Agilent) with the obtained values corrected for the adsorption effects. logP = log([Pt]WSO/[Pt]OSWa) equation was used for the partition coefficients calculation; [Pt]WSO = [Pt]OSWb−[Pt]OSWa. The experiments were conducted in triplicate.
# [5] = Hydrolytic stability by 1H NMR; type: physicochemical; conditions: 20% DMF-d7/80% D2O, after 48 h
# p53 = assay: Ex vivo Western blot of tumour tissues, p53; type: in vivo, mice; conditions: pooled tumour samples
# Method: (§1) Frozen tumour samples were homogenized by a bench blender IKA DI25 (IKA-Werke, Germany) in the presence of a lysis buffer [cOmplete Protease Inhibitor Cocktail (Roche, Germany), 50 mM Tris-HCl pH 7.5, 1 mM EGTA, 1 mM EDTA, 1 mM sodium orthovanadate, 50 mM sodium fluoride, 5 mM sodium pyrophosphate, 270 mM sucrose, 0.5% (v/v) Triton X-100]. Subsequently, the blended samples were centrifuged at 9.000 g at 4°C for 15 min. The supernatants were collected and the protein concentration was measured by the Brandford’s method using the Brandford reagent (Amresco, USA) according to the manufacturer’s manual. The measured samples were stored at -80°C for the following experiments.
# (§2) The expression of caspase 3, MCL-1, p53, and β-actin as loading control were evaluated by Western blot analysis and immunodetection. Lysates were mixed with a denaturing loading dye [250 mM Tris-HCl pH 6.8, 5% (v/v) β-mercaptoethanol, 10% (w/v) sodium dodecyl sulfate, 30% (v/v) glycerol, 0.04% (w/v) bromophenol blue], heated for 5 min at 70°C. To eliminate intra-species variability, and to obtain the same amount of proteins from all experimental groups, all samples from one group of animals were pooled together and loaded onto a 15% polyacrylamide denaturing gel. The final protein amount was 50 μg per well. After protein separation in the gel, they were transferred on the Immun-Blot polyvinylidene difluoride membrane 0.2 μm (Bio-Rad, USA). Then, the membrane was blocked by 5% (w/v) BSA in TBST [10 mM Tris-HCl pH 7.5, 150 mM NaCl, 0.1% (v/v) Tween-20]. […] HRP was detected by Clarity Western ECL Substrate (Bio-Rad, USA) using chemiluminescent documentation system Syngene PXi-4 (UK).
# MCL-1L (37 kDa) = assay: Ex vivo Western blot of tumour tissues, MCL-1L; type: in vivo, mice; conditions: pooled tumour samples
# Method: as §1, §2
Structure (SMILES),IC50 [1],IC50 [2],IC50 [3],selectivity factor IC50(Hep)/IC50(cancer cell line) [3],logP [4],fraction of complex hydrolyzed [5],p53 level in tumour tissue (p53),MCL-1L level in tumour tissue (MCL-1L (37 kDa))
"N.N.[Cl][Pt][Cl] [Cisplatin, cisplatin, reference compound]",7.6 µM,22 µM,–,–,–,–,–,–
"Brc1cc[n+]([Pt-2]([I])([I])[n+]2ccc(Br)c3cc[nH]c32)c2[nH]ccc12 [Complex 6, cis-[Pt(4Braza)2I2]]",–,–,0.4 ± 0.3 µM,~10,–0.07,~10%,did not affect,negligible effect
"Cc1cc2c(Cl)cc[n+]([Pt-2]([I])([I])[n+]3ccc(Cl)c4cc(C)[nH]c43)c2[nH]1 [Complex 8, cis-[PtI2(2Me4Claza)2]]",–,–,0.4 ± 0.2 µM,~24,–,–,attenuated,considerably increased
